The subject of the assay is SC-34 (DNA, aptamer) ACCTTAAGTGGGGTTCGGGTGGAGTTTATGGGGT
Put plainly: ITC, single-site model. The note with it: 20 mM NaCl, 0.5 mM MgCl2; 10 mM Tris, pH 7.4, 23 °C; same value in low-salt PBS.

Molecules are shown by their SMILES.

`CCC[C@H](C(=O)c1ccc2c(c1)OCO2)N1CCCC1`: the KD was ~ 300 nM.

The record behind these values is article PMC7933091 (2021).
